The test system of series [1] is Staphylococcus aureus. The series can be described thus: Antimicrobial activity against Staphylococcus aureus at 50 ug/disk by paper disk antibiotic sensitivity assay. The note with it: read-out: IZ. The format is functional.
Series [2] has as its system Candida albicans. The series can be described thus: Antimicrobial activity against Candida albicans at 100 ug/disk by paper disk antibiotic sensitivity assay. The format is functional, organism-based.
Series [3] has as its system Bacillus subtilis. Put plainly: Antimicrobial activity against Bacillus subtilis at 25 ug/disk by paper disk antibiotic sensitivity assay. The format is functional. To be noted: read-out: IZ.
For series [4], the system named is Bacillus subtilis. The series can be described thus: Antimicrobial activity against Bacillus subtilis at 50 ug/disk by paper disk antibiotic sensitivity assay. The format is functional. To be noted: read-out: IZ.
In series [5] the test system is Escherichia coli. The series can be described thus: Antimicrobial activity against Escherichia coli at 100 ug/disk by paper disk antibiotic sensitivity assay. The format is functional, organism-based.
Series [6] has as its system Pseudomonas aeruginosa. The series can be described thus: Antimicrobial activity against Pseudomonas aeruginosa at 100 ug/disk by paper disk antibiotic sensitivity assay. The format is functional.
Another series relates to Carassius auratus. Put plainly: Toxicity in goldfish at 10 ug/ml. The format is organism-based. The note with it: in vivo.
Series [7] relates to Staphylococcus aureus. Put plainly: Antimicrobial activity against Staphylococcus aureus at 100 ug/disk by paper disk antibiotic sensitivity assay. To be noted: read-out: IZ. The format is functional.
Another series concerns KB. Put plainly: Cytotoxicity against human KB cells. The format is functional. The note with it: read-out: ID50 (the source's name).
Series [8] deals with Staphylococcus aureus. Put plainly: Antimicrobial activity against Staphylococcus aureus at 25 ug/disk by paper disk antibiotic sensitivity assay. The note with it: read-out: IZ. The format is functional.
Series [9] has as its system Serratia marcescens. The series can be described thus: Antimicrobial activity against Serratia marcescens at 200 ug/disk by paper disk antibiotic sensitivity assay. The format is functional. The note with it: read-out: IZ.
Series [10] deals with Bacillus subtilis. The series can be described thus: Antimicrobial activity against Bacillus subtilis at 100 ug/disk by paper disk antibiotic sensitivity assay. The format is functional. To be noted: read-out: IZ.
Series [11] has as its system Serratia marcescens. The series can be described thus: Antimicrobial activity against Serratia marcescens at 100 ug/disk by paper disk antibiotic sensitivity assay. The format is functional.
The test system of series [12] is Candida albicans. Put plainly: Antimicrobial activity against Candida albicans at 200 ug/disk by paper disk antibiotic sensitivity assay. The format is functional. The note with it: read-out: IZ.
Series [13] has as its system Pseudomonas aeruginosa. The series can be described thus: Antimicrobial activity against Pseudomonas aeruginosa at 200 ug/disk by paper disk antibiotic sensitivity assay. The format is functional. To be noted: read-out: IZ.
Series [14] deals with Escherichia coli. Put plainly: Antimicrobial activity against Escherichia coli at 200 ug/disk by paper disk antibiotic sensitivity assay. The format is functional. The note with it: read-out: IZ.

SMILES strings stand for the structures. ≈ marks a conversion by molar mass, not a printed value. Calls of active or inactive are those of the source. The rule behind the calls is not given here.

Take `OCc1cc(Br)c(O)c(O)c1Cc1ccc(O)c(Br)c1` [AVRAINVILLEOL]: the zone of inhibition at 50 µg/disc in the series with Staphylococcus aureus [1] and in the series with Bacillus subtilis [4] was 12 mm in each case. In addition, the “inhibition zone (IZ)” value with Candida albicans [2], in the series with Escherichia coli [5] and with Pseudomonas aeruginosa [6] was “inactive” in each case. Moreover, the zone of inhibition at 25 µg/disc with Bacillus subtilis [3] came out at 9 mm; in the series with Staphylococcus aureus [8], 10 mm. In the series on Carassius auratus, the Activity entry is recorded as “Non-toxic”. In addition, the zone of inhibition at 100 µg/disc stood at 16 mm in the series on Staphylococcus aureus [7] and 14 mm in the series on Bacillus subtilis [10]. The IC50 with KB stood at 10 µg/mL (≈ 24.7 µM). Moreover, in the series with Serratia marcescens [9], the zone of inhibition at 200 µg/disc turned out to be 9 mm.

With `OCc1cc(O)c(O)c(Br)c1Cc1cc(O)c(O)c(Br)c1`, the “inhibition zone (IZ)” value in the series with Serratia marcescens [11], in the series on Candida albicans [2], with Escherichia coli [5] and in the series with Pseudomonas aeruginosa [6] was “inactive” each time. Also, the zone of inhibition at 25 µg/disc with Bacillus subtilis [3] was found to be 9 mm. The zone of inhibition at 50 µg/disc in the series on Bacillus subtilis [4] amounted to 10 mm. Besides, the Activity result in the series with Carassius auratus is given as “Non-toxic”. In addition, the zone of inhibition at 100 µg/disc with Staphylococcus aureus [7] amounted to 10 mm; in the series on Bacillus subtilis [10], 11 mm.

On to `OCc1cc(O)c(O)c(Br)c1`, for which the zone of inhibition at 50 µg/disc with Staphylococcus aureus [1] was found to be 11 mm; with Bacillus subtilis [4] it was 10 mm. Besides, the zone of inhibition at 200 µg/disc in the series with Candida albicans [12] stood at 8 mm; with Pseudomonas aeruginosa [13], 9 mm; in the series with Serratia marcescens [9], 13 mm; in the series with Escherichia coli [14], 10 mm. For the same molecule, the zone of inhibition at 100 µg/disc in the series on Serratia marcescens [11] (read-out: IZ) worked out at 9 mm; in the series on Pseudomonas aeruginosa [6] (read-out: IZ), 8 mm; with Staphylococcus aureus [7] it was 13 mm; in the series on Bacillus subtilis [10], 12 mm. Moreover, the zone of inhibition at 25 µg/disc with Bacillus subtilis [3] and with Staphylococcus aureus [8] was 8 mm in each case. Also, the Activity result with Carassius auratus was “Non-toxic”. In addition, the IC50 with KB turned out to be 8.9 µg/mL (≈ 40.6 µM).
